Test results from BindingDB's records for PubMed 40053382 (Sapienza University of Rome).

Columns and labels:
[1] = Inhibition of HIV-1 Reverse transcriptase K103N mutant
[2] = Inhibition of HIV-1 Reverse transcriptase K103N/Y181C double mutant
[3] = Inhibition of wild type HIV-1 LAI reverse transcriptase
[4] = Inhibition of HIV-1 integrase strand transfer activity
[5] = Inhibition of HIV-1 Reverse transcriptase L100I/K103N double mutant

Row | SMILES | IC50 [1] [nM] | IC50 [2] [nM] | IC50 [3] [nM] | IC50 [4] [nM] | IC50 [5] [nM]
1 | Cc1cc(/C=C/C#N)cc(C)c1Nc1ncnc(Nc2ccc(C#N)cc2)n1 | 0.3 | 1 | 0.4 | – | –
2 | CSc1nc(C(C)C)c(Cc2ccccc2)n1COCc1ccccc1 | – | – | – | 3300 | –
3 | Cc1cc(C#N)cc(C)c1Oc1ncnc(Nc2ccc(C#N)cc2)n1 | 1.4 | 25 | 1.4 | – | 49
4 | Cc1cc(C#N)cc(C)c1Nc1ncnc(Nc2ccc(C#N)cc2)n1 | 0.4 | 32 | 0.4 | – | –
5 | CCc1nc(SC)n(COCc2ccccc2)c1CC1CCCCC1 | – | – | – | 400 | –
6 | CSc1nc(C(C)C)c(CC2CCCCC2)n1COCc1ccccc1 | – | – | – | 260 | –
7 | CCOCn1c(SC)nc(C(C)C)c1CC1CCCCC1 | – | – | – | 250 | –
